Read-outs that look alike come from different tables or passages of the source.
Experiments:
[1] = cited from earlier work
[2] = cited from earlier work; remark: listed apart in the source
[3] = Eosin-Y release and retention in thiol-ene hydrogels; assay type: physicochemical; settings: for eosin-Y retention in thiol-ene hydrogels: after 48 hours of swelling
Method: EXAMPLE. Eosin-Y retention: PEG4NB-DTT hydrogel discs (8 mm in diameter and 1 mm in height) are fabricated. Immediately after polymerization, each hydrogel (8 mm in diameter and 1 mm in height) is immersed into a scintillation vial containing 2 mL of ddH2O. Three separate samples are prepared per experimental condition. These scintillation vials are capped tightly and stored at 37° C. on an orbital shaker. At specific time points, these vials are swirled manually to ensure homogeneous mix and 200 μL of solution is transferred to a well of a transparent 96-well plate. The buffer is changed at every time point. The absorbance (at 515 nm) of the collected samples is determined using a microplate reader (Biotek). Eosin-Y retention was calculated by generating a standard curve prepared from a series of known eosin-Y concentrations (0.02 mM being the highest).

[4] = post-gelation, pH 7.4 PBS, FIG. 10

Structure (SMILES) | molar absorptivity (ε) ([1]; at 365 nm) | water solubility [2] | molar absorptivity (ε) ([1]; at 405 nm) | time in which most of the eosin-Y was released from the hydrogel [3, 4] | time to complete release of eosin-Y from the hydrogel [3, 4] | eosin-Y retention in thiol-ene hydrogels ([3]; starting eosin-Y concentration 0.1 mM) | eosin-Y retention in thiol-ene hydrogels ([3]; starting eosin-Y concentration 2.0 mM)
CC(C)(O)C(=O)c1ccc(OCCO)cc1 [I-2959] | < 10 M⁻¹ cm⁻¹ | < 0.5 wt % | – | – | – | – | –
Cc1cc(C)c(C(=O)P(=O)([O-])c2ccccc2)c(C)c1.[Li+] [LAP, lithium arylphosphinate] | ~200 M⁻¹ cm⁻¹ | > 5 wt % | ~30 M⁻¹ cm⁻¹ | – | – | – | –
O=C([O-])c1ccccc1-c1c2cc(Br)c(=O)c(Br)c-2oc2c(Br)c([O-])c(Br)cc12.[Na+].[Na+] [eosin-Y, Eosin-Y disodium salt] | – | – | – | 0.5 h | 6 h | ~0.004 µmol | ~0.03 µmol
